Results: paper PMC5527824 (Frontiers in bioscience (Scholar edition), 2015)
Several values for one entry are separate records, joined by “and”; a condition that tells them apart may be missing. Equal values may be shown once. Read-outs that look alike come from different tables or passages of the source.

How the values were obtained:
[1] = tested on: human lung adenocarcinoma cell line H1299; details: H1299 cells; cited from earlier work
[2] = tested on: scopolamine-induced memory impairment in mice; details: cited from earlier work
ATF4 = details: basal half-life ~10 min; cited from earlier work
[3] = tested on: BV-2 microglial cell line; details: BV-2 cells; cited from earlier work
[4] = biological target: 5-LOX from human peripheral blood mononuclear leukocytes (PBML) (Homo sapiens, UniProt P09917); experiment: 5-LOX inhibition; type: biochemical; details: Fisetin IC50, 5-LOX
5-LOX from human peripheral blood mononuclear leukocytes (PBML), sequence (P09917 whole entry): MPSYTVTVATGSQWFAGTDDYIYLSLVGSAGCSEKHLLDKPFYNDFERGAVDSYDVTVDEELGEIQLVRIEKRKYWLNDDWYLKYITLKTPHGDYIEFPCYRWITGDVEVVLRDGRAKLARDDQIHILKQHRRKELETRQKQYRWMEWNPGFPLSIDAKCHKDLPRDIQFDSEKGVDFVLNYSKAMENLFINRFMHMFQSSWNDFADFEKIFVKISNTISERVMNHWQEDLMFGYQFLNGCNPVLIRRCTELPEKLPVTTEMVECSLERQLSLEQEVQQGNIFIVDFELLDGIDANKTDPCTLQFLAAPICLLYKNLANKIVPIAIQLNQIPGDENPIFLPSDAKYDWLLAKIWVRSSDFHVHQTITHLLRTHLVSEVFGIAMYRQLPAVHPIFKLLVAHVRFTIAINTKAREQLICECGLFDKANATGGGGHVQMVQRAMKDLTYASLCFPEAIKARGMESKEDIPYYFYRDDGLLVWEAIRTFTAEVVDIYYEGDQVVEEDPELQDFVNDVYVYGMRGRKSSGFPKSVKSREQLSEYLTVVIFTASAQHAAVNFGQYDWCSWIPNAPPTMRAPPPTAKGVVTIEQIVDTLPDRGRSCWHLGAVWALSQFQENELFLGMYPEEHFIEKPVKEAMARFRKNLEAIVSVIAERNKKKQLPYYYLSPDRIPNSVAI

[5] = pharmacokinetics in mice, oral; type: in vivo, mouse; details: oral 50 mg/kg bw, unpublished results
Akita mice [6] = details: cited from earlier work
[7] = tested on: rodent model of depression; details: oral administration; cited from earlier work
[8] = biological target: 15-LOX from rabbit reticulocytes (Oryctolagus cuniculus, UniProt P12530); experiment: 15-LOX inhibition; details: Fisetin IC50, 15-LOX
15-LOX from rabbit reticulocytes, sequence (P12530 whole entry): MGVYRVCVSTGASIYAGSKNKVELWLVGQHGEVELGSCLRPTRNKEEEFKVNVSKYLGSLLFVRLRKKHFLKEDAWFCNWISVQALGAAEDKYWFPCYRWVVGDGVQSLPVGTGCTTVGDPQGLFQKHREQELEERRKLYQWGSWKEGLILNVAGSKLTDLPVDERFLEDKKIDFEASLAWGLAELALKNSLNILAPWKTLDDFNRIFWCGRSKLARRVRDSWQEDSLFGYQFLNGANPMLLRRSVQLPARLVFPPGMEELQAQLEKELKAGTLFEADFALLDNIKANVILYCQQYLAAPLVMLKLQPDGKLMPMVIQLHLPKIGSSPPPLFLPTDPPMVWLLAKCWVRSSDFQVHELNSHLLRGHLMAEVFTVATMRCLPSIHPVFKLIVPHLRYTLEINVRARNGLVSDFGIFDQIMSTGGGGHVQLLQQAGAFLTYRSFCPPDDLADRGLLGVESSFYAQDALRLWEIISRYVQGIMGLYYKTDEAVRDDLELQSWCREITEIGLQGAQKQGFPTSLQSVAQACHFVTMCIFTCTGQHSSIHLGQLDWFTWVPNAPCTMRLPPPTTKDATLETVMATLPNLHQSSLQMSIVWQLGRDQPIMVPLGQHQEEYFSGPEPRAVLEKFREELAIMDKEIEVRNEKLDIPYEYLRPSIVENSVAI

monoamine oxidase A = details: stated as possible mechanism; cited from earlier work
[9] = 0.05% in diet for 9 months (~25 mg/kg bw), vs control; cited from earlier work
[10] = tested on: APPswe/PS1dE9 double transgenic AD mice; details: 0.05% in food, cited from earlier work
HT22 cells = details: cited from earlier work
proteasome = details: cited from earlier work
[11] = rats, intravenous and oral administration; cited from earlier work
[12] = tested on: mouse N9 microglial cells; details: cited from earlier work
[13] = tested on: rodent model of depression; details: oral administration; cited from earlier work; remark: listed apart in the source
[14] = cited from earlier work
Aβ = details: cell-free assay system; cited from earlier work
5-LOX = details: stimulated peritoneal leukocytes; cited from earlier work
[15] = tested on: mouse hippocampal HT22 cells; details: cited from earlier work
COX1 (Human platelets) = COX1 (Human platelets) (Homo sapiens, UniProt P23219); experiment: COX1 inhibition; type: biochemical
COX1 (Human platelets), sequence (P23219 24-599): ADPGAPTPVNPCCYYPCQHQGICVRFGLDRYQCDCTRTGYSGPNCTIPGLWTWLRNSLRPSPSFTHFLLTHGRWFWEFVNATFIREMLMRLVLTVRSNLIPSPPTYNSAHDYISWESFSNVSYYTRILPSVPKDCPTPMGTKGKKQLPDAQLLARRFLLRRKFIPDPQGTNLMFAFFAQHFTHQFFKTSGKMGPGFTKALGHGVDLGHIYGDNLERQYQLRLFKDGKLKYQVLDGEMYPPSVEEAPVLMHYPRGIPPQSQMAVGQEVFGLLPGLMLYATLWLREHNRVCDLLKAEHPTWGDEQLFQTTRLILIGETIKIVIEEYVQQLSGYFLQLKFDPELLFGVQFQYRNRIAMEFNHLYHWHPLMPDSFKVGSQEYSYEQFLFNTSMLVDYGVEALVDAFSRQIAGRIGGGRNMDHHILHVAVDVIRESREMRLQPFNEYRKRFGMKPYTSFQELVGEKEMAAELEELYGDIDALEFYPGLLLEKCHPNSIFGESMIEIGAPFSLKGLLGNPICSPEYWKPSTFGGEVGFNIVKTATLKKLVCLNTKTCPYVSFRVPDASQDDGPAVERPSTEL

tMCAO in mice [16] = details: cited from earlier work; for intracellular TNF-α production in macrophages / TNF-α–producing microglia: brain
cytochrome P450 2D6 = cytochrome P450 2D6 (Homo sapiens, UniProt P10635); experiment: cytochrome P450 2D6 inhibition; type: in vitro ADME; details: at concentrations up to 10 μM; unpublished results
cytochrome P450 2D6, sequence (P10635 whole entry): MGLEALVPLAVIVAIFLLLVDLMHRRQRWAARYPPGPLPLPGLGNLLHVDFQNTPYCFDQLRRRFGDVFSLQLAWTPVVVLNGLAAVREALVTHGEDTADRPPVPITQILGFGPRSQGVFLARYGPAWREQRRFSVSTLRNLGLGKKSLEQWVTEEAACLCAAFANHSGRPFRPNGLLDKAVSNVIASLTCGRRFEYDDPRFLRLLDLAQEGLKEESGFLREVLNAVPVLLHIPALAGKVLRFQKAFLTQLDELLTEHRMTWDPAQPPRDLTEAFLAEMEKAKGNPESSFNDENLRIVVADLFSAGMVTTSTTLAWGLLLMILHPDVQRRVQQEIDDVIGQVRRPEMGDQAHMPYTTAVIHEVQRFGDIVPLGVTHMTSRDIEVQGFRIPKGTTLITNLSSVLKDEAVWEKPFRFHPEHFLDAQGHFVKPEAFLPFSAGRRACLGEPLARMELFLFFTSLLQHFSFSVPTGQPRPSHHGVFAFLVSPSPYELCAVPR

Akita mice [17] = experiment: Ins2^Akita mouse model of type 1 diabetes; type: in vivo; details: 0.05% in diet for 18 weeks
[18] = tested on: NF-κB coactivator CBP/p300; details: human monocytes; cited from earlier work
R6/2 mouse = details: R6/2 mice, cited from earlier work
[19] = test tube assays; cited from earlier work
tMCAO in mice [20] = details: cited from earlier work
[21] = short-term toxicity study in mice; type: in vivo; details: oral 2000 mg/kg bw, examined for 48 hr, outside laboratory
[22] = mouse, intravenous 223 mg/kg bw; cited from earlier work
[23] = tested on: APPswe/PS1dE9 double transgenic AD mice; details: cited from earlier work
hERG = hERG (Homo sapiens, UniProt Q12809); experiment: hERG activity; details: at concentrations up to 10 μM, the highest concentration tested; unpublished results
hERG, sequence (Q12809 whole entry): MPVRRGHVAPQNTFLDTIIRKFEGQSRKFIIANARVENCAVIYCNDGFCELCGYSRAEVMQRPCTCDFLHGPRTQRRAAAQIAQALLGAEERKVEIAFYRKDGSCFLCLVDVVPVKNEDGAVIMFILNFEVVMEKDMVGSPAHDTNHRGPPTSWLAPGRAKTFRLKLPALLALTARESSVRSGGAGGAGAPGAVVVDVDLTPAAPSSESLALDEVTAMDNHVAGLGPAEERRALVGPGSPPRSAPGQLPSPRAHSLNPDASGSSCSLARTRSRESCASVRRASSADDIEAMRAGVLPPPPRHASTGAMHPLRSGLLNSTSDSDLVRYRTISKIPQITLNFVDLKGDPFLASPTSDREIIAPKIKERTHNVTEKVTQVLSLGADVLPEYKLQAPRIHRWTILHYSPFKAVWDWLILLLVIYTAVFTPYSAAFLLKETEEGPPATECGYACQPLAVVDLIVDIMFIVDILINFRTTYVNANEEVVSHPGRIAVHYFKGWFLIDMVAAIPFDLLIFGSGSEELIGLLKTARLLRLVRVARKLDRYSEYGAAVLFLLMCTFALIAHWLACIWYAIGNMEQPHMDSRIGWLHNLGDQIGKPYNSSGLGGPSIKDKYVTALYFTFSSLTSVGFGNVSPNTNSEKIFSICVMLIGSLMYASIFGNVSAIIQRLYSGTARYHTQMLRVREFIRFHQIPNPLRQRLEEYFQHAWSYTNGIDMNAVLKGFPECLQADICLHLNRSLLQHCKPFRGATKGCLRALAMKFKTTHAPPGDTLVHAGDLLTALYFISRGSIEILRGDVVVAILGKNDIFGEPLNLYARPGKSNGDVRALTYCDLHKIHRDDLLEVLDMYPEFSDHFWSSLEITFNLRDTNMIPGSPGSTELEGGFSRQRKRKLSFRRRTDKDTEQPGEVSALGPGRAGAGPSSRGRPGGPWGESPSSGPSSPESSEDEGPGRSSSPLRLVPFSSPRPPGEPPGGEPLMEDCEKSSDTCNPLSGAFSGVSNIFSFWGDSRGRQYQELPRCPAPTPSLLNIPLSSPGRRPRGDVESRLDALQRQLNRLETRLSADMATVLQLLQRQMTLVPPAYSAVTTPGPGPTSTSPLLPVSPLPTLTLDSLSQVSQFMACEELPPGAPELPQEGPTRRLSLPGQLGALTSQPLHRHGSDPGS

PC12/Htt^Q103 cells = details: 10 μM, 24 hr after induction of Httex1-103QP; cited from earlier work
15-LOX = details: rabbit reticulocytes; cited from earlier work
[24] = tested on: mouse HT22 hippocampal nerve cell line; details: read-out: EC50, protection from IAA-induced death; HT22 cells; cited from earlier work

Structure (SMILES): O=c1c(O)c(-c2ccc(O)c(O)c2)oc2cc(O)ccc12 [fisetin, 3,3′,4′,7-tetrahydroxyflavone]
- NF-κB-dependent reporter gene expression and protein expression [1]: reduced
- loss of total GSH from the cortex ([2]; scopolamine-treated mice): prevent the loss of total GSH
- rescue of memory deficit induced by scopolamine ([2]; single oral dose of 40 mg/kg bw): as effective as donepezil
- increase of ATF4 half-life (ATF4): ~ 2 fold
- LPS-induced nitric oxide production, TNF-α, PGE2 and iNOS/COX2 expression [3]: blocked
- IC50 [4]: 585 nM and 580 nM
- half-life of free fisetin [5]: very short half-life
- elevated blood glucose and HbA1c (Akita mice [6]; 0.05% in food (25–40 mg/kg bw daily), 6 to 24 weeks): not affected
- open field test, distance traveled and time ambulatory (anxiety-related symptoms) (Akita mice [6]; 0.05% in food): restored to near normal values
- weight loss (Akita mice [6]; 0.05% in food): not altered
- most effective dose at reducing immobility time [7]: 20 mg/kg bw
- IC50 [8]: 341 nM and 340 nM
- inhibition of monoamine oxidase A (monoamine oxidase A): mild inhibition
- body weights [9]: No significant differences
- swim speeds [10]: no effect
- MWM probe test, memory (time in platform quadrant) ([10]; AD mice 9 months of age): clear evidence of memory improvement
- extracellular Aβ toxicity (HT22 cells): prevents extracellular Aβ toxicity
- proteasome activity (proteasome): increase proteasome activity
- t1/2 of free fisetin in serum [11]: 2.7 min
- reduction of iNOS expression ([12]; 10 μM, following LPS stimulation (p<0.001)): 91%
- IκB, JNK and c-Jun phosphorylation ([12]; LPS-stimulated murine microglia): significantly reduced
- LPS-induced nitric oxide and TNF-α production ([12]; N9 cells, vs placebo): significant inhibition
- most effective dose at reducing immobility time [13]: 20 mg/kg bw
- chelation of iron [14]: efficient chelation
- Aβ fibril formation (Aβ): inhibit Aβ fibril formation
- inhibition of 5-LOX activity (5-LOX): effective inhibitor
- reduction in the ability of fisetin to maintain cellular GSH levels ([15]; siRNA to ATF4, basal and glutamate-induced oxidative stress conditions): ~ 50%
- effect of Nrf2 reduction on the ability of fisetin to maintain GSH levels ([15]; siRNA to Nrf2, basal conditions): no effect
- reduction in the ability of fisetin to maintain GSH ([15]; siRNA to Nrf2, in the presence of oxidative stress): ~ 30%
- IC50 (COX1 (Human platelets)): > 10000 nM
- leukocytes infiltrating the brain (tMCAO in mice [16]; 50 mg/kg bw, day 3, mean ± SD, placebo 179,252 ± 23,389): 93,045 ± 46,963 cells per ischemic hemisphere
- numbers of microglia in the ipsilesional hemisphere (tMCAO in mice [16]; 50 mg/kg bw, day 3 after stroke, vs placebo): no significant differences
- intracellular TNF-α production in macrophages (tMCAO in mice [16]; day 3, placebo 24.6%): 2.9%
- TNF-α–producing microglia (tMCAO in mice [16]; day 3, placebo 30.4%): 17.3%
- TNF-α–producing microglia (tMCAO in mice [16]; day 7, placebo 31.9%): 26.8%
- intracellular TNF-α production in macrophages (tMCAO in mice [16]; day 7, placebo 33.8%): 13.9%
- TNF-α production in macrophages and DCs isolated from spleen (tMCAO in mice [16]; day 3 and day 7 post ischemia, vs placebo): did not show any differences
- inhibition of cytochrome P450 2D6 activity (cytochrome P450 2D6): no inhibitory effects
- decrease in motor nerve conduction velocity (Akita mice [17]): ameliorated
- increase in hind paw thermal latency (Akita mice [17]): prevented
- activity of CBP/p300 [18]: suppress
- median life span (R6/2 mouse; 0.05% in food from ~6 weeks of age, control diet 104 days): 139 days
- rotorod performance (R6/2 mouse; 0.05% in food, at 9, 11 and 13 weeks (p < 0.01)): improved
- increase of median life span (R6/2 mouse; 0.05% in food, vs control diet): ~ 30%
- concentration at which pro-oxidant effects are seen [19]: ≥ 50 µM
- infarct size (tMCAO in mice [20]; 25 mg/kg i.p. 20 min before onset of ischemia, placebo 56 μl): 49 µL
- infarct size (tMCAO in mice [20]; 50 mg/kg i.p. 20 min before onset of ischemia, placebo 56 μl): 30 µL
- infarct size (tMCAO in mice [20]; 50 mg/kg i.p. three hours after onset of ischemia, placebo 42 μl): 27 µL
- short-term toxicity [21]: No indications of toxicity
- t1/2 of free fisetin in serum [22]: 3.12 h
- production of PGD2, PGJ2 and 15d-PGD2 ([23]; AD mice study): increased production
- ERK phosphorylation in the hippocampus ([23]; AD mice treated with fisetin): increases in ERK phosphorylation
- AD-increased production of thromboxanes TXB1 and TXB2 ([23]; AD mice, 0.05% in food): partly prevented
- astrocyte area and intensity of GFAP staining in hippocampus ([23]; AD mice, 0.05% in food): largely reversed
- brain levels of 5-HETE and 12-HETE ([23]; AD mice): significantly reduce
- Aβ1–40 level in RIPA soluble fraction of hippocampus ([23]; ELISA, Aβ1–42 not reduced): significantly reduce
- Aβ plaque loads in brain sections ([23]; fisetin-fed vs control AD mice): No significant differences
- inhibition of hERG activity (hERG): no inhibition
- protection of cells (PC12/Htt^Q103 cells): equal or greater amount of protection
- inhibition of 15-LOX activity (15-LOX): effective inhibitor
- EC50 [24]: 3000 nM
